{"source": "patent US11753408B2", "about": "“Compounds and method for blocking transmission of malarial parasite” (The United States of America, as represented by the …, priority 2016, dated 2023)", "key": {"[1]": {"system": "Stage III-V gametocytes (blood stage P. falciparum parasites)", "assay": "In vitro drug activity on gametocytes (AlamarBlue viability assay)", "format": "cell-based, Plasmodium falciparum", "conditions": "P. falciparum stage III-V gametocytes, 72 h incubation, AlamarBlue; read-out: Gametocyte EC50", "method_in_brief": "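P. falciparum 3D7 stage III–V gametocytes (also HB3, Dd2), enriched by 50 mM N-acetylglucosamine and Percoll gradient, seeded at 20,000/well with compound for 72 h at 37° C, 5% CO2. AlamarBlue then added for 24 h; viability read as fluorescence (Ex 525, Em 598 nm).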"}, "PAMPA permeability": {"assay": "PAMPA permeability", "format": "in vitro ADME", "conditions": "PAMPA"}, "Solubility at pH 7.4": {"assay": "Solubility at pH 7.4", "format": "physicochemical"}, "[2]": {"assay": "Microsomal stability (rat)", "format": "in vitro ADME", "conditions": "rat microsomes"}, "[3]": {"system": "Asexual parasites of P. falciparum strain 3D7", "assay": "In vitro drug activity on asexual parasites (SYBR Green assay)", "format": "cell-based, Plasmodium falciparum", "conditions": "P. falciparum 3D7 asexual parasites, 72 h, SYBR Green", "method_in_brief": "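3D7 parasites at 0.5% parasitemia and 2% hematocrit were exposed to drugs (DMSO ≤0.5%) for 72 h under standard culture conditions, in duplicate. After freeze-thaw lysis, SYBR Green I lysis buffer was added for 30 min at room temperature, and fluorescence was read at 490/520 nm.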"}}, "data": [{"smiles": "CN(C)Cc1ccc(-c2ccc3ncc4ccc(=O)n(-c5cccc(C#N)c5)c4c3c2)cc1", "note": "[Compound 2]", "values": [{"measurement": "EC50", "setting": "[1]", "value": 428, "unit": "nM"}, {"measurement": "PAMPA Permeability (×10^6 cm/s)", "setting": "PAMPA permeability", "value": "1040.6 ×10^6 cm/s"}, {"measurement": "Sol @ pH 7.4 (ug/mL)", "setting": "Solubility at pH 7.4", "value": ">64.0", "unit": "ug/mL"}, {"measurement": "Microsomal Stability (rat) T1/2", "setting": "[2]", "value": ">30.0", "unit": "min"}, {"measurement": "EC50", "setting": "[3]", "value": 291, "unit": "nM"}]}, {"smiles": "Cc1ccc(C#N)cc1-n1c(=O)ccc2cnc3ccc(-c4ccc(Cl)cc4)cc3c21", "note": "[Compound 3]", "values": [{"measurement": "EC50", "setting": "[1]", "value": 264, "unit": "nM"}, {"measurement": "PAMPA Permeability (×10^6 cm/s)", "setting": "PAMPA permeability", "value": "621.2 ×10^6 cm/s"}, {"measurement": "Sol @ pH 7.4 (ug/mL)", "setting": "Solubility at pH 7.4", "value": "<0.1", "unit": "ug/mL"}, {"measurement": "Microsomal Stability (rat) T1/2", "setting": "[2]", "value": 12.1, "unit": "min"}, {"measurement": "EC50", "setting": "[3]", "value": 111, "unit": "nM"}]}, {"smiles": "Cc1cc(N2CCNCC2)c(C#N)cc1-n1c(=O)ccc2cnc3ccc(-c4ccc(Cl)cc4)cc3c21", "note": "[Compound 4]", "values": [{"measurement": "EC50", "setting": "[1]", "value": 55, "unit": "nM"}, {"measurement": "PAMPA Permeability (×10^6 cm/s)", "setting": "PAMPA permeability", "value": "21 ×10^6 cm/s"}, {"measurement": "Sol @ pH 7.4 (ug/mL)", "setting": "Solubility at pH 7.4", "value": "<1", "unit": "ug/mL"}, {"measurement": "Microsomal Stability (rat) T1/2", "setting": "[2]", "value": 9.6, "unit": "min"}, {"measurement": "EC50", "setting": "[3]", "value": 14.9, "unit": "nM"}]}, {"smiles": "Cc1c(C#N)cccc1-n1c(=O)ccc2cnc3ccc(-c4ccc(Cl)cc4)cc3c21", "note": "[Compound 8]", "values": [{"measurement": "EC50", "setting": "[1]", "value": 139, "unit": "nM"}, {"measurement": "PAMPA Permeability (×10^6 cm/s)", "setting": "PAMPA permeability", "value": "<1 ×10^6 cm/s"}, {"measurement": "Sol @ pH 7.4 (ug/mL)", "setting": "Solubility at pH 7.4", "value": "<1", "unit": "ug/mL"}, {"measurement": "Microsomal Stability (rat) T1/2", "setting": "[2]", "value": 14.5, "unit": "min"}, {"measurement": "EC50", "setting": "[3]", "value": 60.3, "unit": "nM"}]}, {"smiles": "CCN(CC)Cc1ccc(-c2ccc3ncc4ccc(=O)n(-c5cc(C#N)ccc5C)c4c3c2)cc1", "note": "[Compound 9]", "values": [{"measurement": "EC50", "setting": "[1]", "value": 2570, "unit": "nM"}, {"measurement": "PAMPA Permeability (×10^6 cm/s)", "setting": "PAMPA permeability", "value": "1492.3 ×10^6 cm/s"}, {"measurement": "Sol @ pH 7.4 (ug/mL)", "setting": "Solubility at pH 7.4", "value": 58.6, "unit": "ug/mL"}, {"measurement": "Microsomal Stability (rat) T1/2", "setting": "[2]", "value": 10.9, "unit": "min"}, {"measurement": "EC50", "setting": "[3]", "value": 668, "unit": "nM"}]}, {"smiles": "CN(C)Cc1cccc(-c2ccc3ncc4ccc(=O)n(-c5ccc(S(C)(=O)=O)cc5)c4c3c2)c1", "note": "[Compound 60]", "values": [{"measurement": "EC50", "setting": "[1]", "value": 1950, "unit": "nM"}, {"measurement": "PAMPA Permeability (×10^6 cm/s)", "setting": "PAMPA permeability", "value": "1646.44 ×10^6 cm/s"}, {"measurement": "Sol @ pH 7.4 (ug/mL)", "setting": "Solubility at pH 7.4", "value": 21.28, "unit": "ug/mL"}, {"measurement": "Microsomal Stability (rat) T1/2", "setting": "[2]", "value": ">30.00", "unit": "min"}]}, {"smiles": "CS(=O)(=O)c1ccc(-n2c(=O)ccc3cnc4ccc(-c5ccc(Cl)cc5)cc4c32)cc1CN1CCOCC1", "note": "[Compound 66]", "values": [{"measurement": "EC50", "setting": "[1]", "value": 350, "unit": "nM"}, {"measurement": "PAMPA Permeability (×10^6 cm/s)", "setting": "PAMPA permeability", "value": "135 ×10^6 cm/s"}, {"measurement": "Sol @ pH 7.4 (ug/mL)", "setting": "Solubility at pH 7.4", "value": "<1", "unit": "ug/mL"}, {"measurement": "Microsomal Stability (rat) T1/2", "setting": "[2]", "value": 1.4, "unit": "min"}]}, {"smiles": "CN(C)Cc1cc(-n2c(=O)ccc3cnc4ccc(-c5ccc(Cl)cc5)cc4c32)ccc1S(C)(=O)=O", "note": "[Compound 67]", "values": [{"measurement": "EC50", "setting": "[1]", "value": 1340, "unit": "nM"}, {"measurement": "PAMPA Permeability (×10^6 cm/s)", "setting": "PAMPA permeability", "value": "1449.1 ×10^6 cm/s"}, {"measurement": "Sol @ pH 7.4 (ug/mL)", "setting": "Solubility at pH 7.4", "value": "<1", "unit": "ug/mL"}, {"measurement": "Microsomal Stability (rat) T1/2", "setting": "[2]", "value": 1.7, "unit": "min"}]}, {"smiles": "CS(=O)(=O)c1cccc(-n2c(=O)ccc3cnc4ccc(-c5ccc(N)nc5)cc4c32)c1", "note": "[Compound 80]", "values": [{"measurement": "EC50", "setting": "[1]", "value": 214, "unit": "nM"}, {"measurement": "PAMPA Permeability (×10^6 cm/s)", "setting": "PAMPA permeability", "value": "50.85 ×10^6 cm/s"}, {"measurement": "Sol @ pH 7.4 (ug/mL)", "setting": "Solubility at pH 7.4", "value": 49.68, "unit": "ug/mL"}, {"measurement": "Microsomal Stability (rat) T1/2", "setting": "[2]", "value": 7.1, "unit": "min"}]}, {"smiles": "CS(=O)(=O)c1ccc(-n2c(=O)ccc3cnc4ccc(-c5ccc(N)nc5)cc4c32)cc1N1CCOCC1", "note": "[Compound 83]", "values": [{"measurement": "EC50", "setting": "[1]", "value": 74.7, "unit": "nM"}, {"measurement": "PAMPA Permeability (×10^6 cm/s)", "setting": "PAMPA permeability", "value": "58.31 ×10^6 cm/s"}, {"measurement": "Sol @ pH 7.4 (ug/mL)", "setting": "Solubility at pH 7.4", "value": 5.62, "unit": "ug/mL"}, {"measurement": "Microsomal Stability (rat) T1/2", "setting": "[2]", "value": ">30.00", "unit": "min"}]}, {"smiles": "O=C1NCc2cc(-n3c(=O)ccc4cnc5ccc(-c6ccc(Cl)cc6)cc5c43)ccc21", "note": "[Compound 339]", "values": [{"measurement": "EC50", "setting": "[1]", "value": 9.19, "unit": "nM"}, {"measurement": "PAMPA Permeability (×10^6 cm/s)", "setting": "PAMPA permeability", "value": "<1.0 ×10^6 cm/s"}, {"measurement": "Sol @ pH 7.4 (ug/mL)", "setting": "Solubility at pH 7.4", "value": "<1.0", "unit": "ug/mL"}, {"measurement": "Microsomal Stability (rat) T1/2", "setting": "[2]", "value": ">30.0", "unit": "min"}]}, {"smiles": "O=C1NCc2ccc(-n3c(=O)ccc4cnc5ccc(-c6ccc(Cl)cc6)cc5c43)cc21", "note": "[Compound 344]", "values": [{"measurement": "EC50", "setting": "[1]", "value": 1500, "unit": "nM"}, {"measurement": "PAMPA Permeability (×10^6 cm/s)", "setting": "PAMPA permeability", "value": "238.8 ×10^6 cm/s"}, {"measurement": "Sol @ pH 7.4 (ug/mL)", "setting": "Solubility at pH 7.4", "value": "<1.0", "unit": "ug/mL"}, {"measurement": "Microsomal Stability (rat) T1/2", "setting": "[2]", "value": 19.2, "unit": "min"}]}, {"smiles": "O=C1NCc2cc(-n3c(=O)ccc4cnc5ccc(-c6ccc(CN7CCC7)cc6)cc5c43)ccc21", "note": "[Compound 378]", "values": [{"measurement": "EC50", "setting": "[1]", "value": 1550, "unit": "nM"}, {"measurement": "PAMPA Permeability (×10^6 cm/s)", "setting": "PAMPA permeability", "value": "2.3 ×10^6 cm/s"}, {"measurement": "Sol @ pH 7.4 (ug/mL)", "setting": "Solubility at pH 7.4", "value": ">70", "unit": "ug/mL"}, {"measurement": "Microsomal Stability (rat) T1/2", "setting": "[2]", "value": ">30", "unit": "min"}]}, {"smiles": "Nc1ccc(-c2ccc3ncc4ccc(=O)n(-c5ccc6c(c5)C(=O)NC6=O)c4c3c2)cn1", "note": "[Compound 395]", "values": [{"measurement": "EC50", "setting": "[1]", "value": 46000, "unit": "nM"}, {"measurement": "PAMPA Permeability (×10^6 cm/s)", "setting": "PAMPA permeability", "value": "3.9 ×10^6 cm/s"}, {"measurement": "Sol @ pH 7.4 (ug/mL)", "setting": "Solubility at pH 7.4", "value": 11.3, "unit": "ug/mL"}, {"measurement": "Microsomal Stability (rat) T1/2", "setting": "[2]", "value": ">30", "unit": "min"}]}]}
